Test results: patent US20230124862A1, “BISMUTH THIOL COMPOUNDS AND COMPOSITIONS AND METHODS OF TREATING MICROBIAL CO-INFECTIONS” (Microbion Corporation, priority 2020, published 2023)
Values after ≈ are worked out from the molar mass of the structure shown. Like-named read-outs stand apart in the source and are kept apart here.

Tests used:
[1] = test system: vancomycin-intermediate Staphylococcus aureus (VISA); assay: Broth microdilution MIC (Example 12); format: cell-based
S. aureus ATCC 29213 [2] = details: CLSI established QC range; cited from earlier work
S. aureus ATCC 29213 [3] = assay: Broth microdilution MIC (Example 12), ATCC QC organism; details: ATCC QC organism (Table 102)
[4] = test system: Gram-positive aerobic bacteria (S. aureus, MRSA, CA-MRSA); assay: MIC90 against 150 clinical isolates of Gram-positive aerobic bacteria; format: cell-based; details: S. aureus (50 isolates)
Candida spp. [5] = details: C. parapsilosis MMX 2323 (ATCC 22019), cited from earlier work
S. aureus ATCC 29213 [6] = assay: MIC control strain; details: QC organism, Example 13
[7] = test system: C. parapsilosis ATCC 22019; details: C. parapsilosis ATCC 22019, CLSI established QC range, cited from earlier work
Candida krusei [8] = assay: Antifungal broth microdilution (Example 13); format: cell-based; details: C. krusei ATCC 6258, comparators, single value
Aspergillus spp. = assay: Antifungal broth microdilution (Example 13); format: cell-based, A. niger, A. terreus, A. fumigatus, A. flavus
E. coli ATCC 25922 = assay: MIC control strain; details: QC organism, Example 13
Candida krusei [9] = details: C. krusei ATCC 6258, CLSI established QC range, cited from earlier work
fungal pathogens = assay: Antifungal activity, NIH/NIAID sponsored study; format: cell-based; details: 50% endpoint
[10] = test system: C. parapsilosis ATCC 22019; assay: Antifungal broth microdilution (Example 13), QC organism; format: cell-based, Candida parapsilosis; details: 24 hr, comparators, single value
Candida spp. [11] = assay: Broth microdilution MIC (Example 11); format: cell-based, C. parapsilosis, C. albicans, C. glabrata, C. tropicalis; details: read-out: MIC

CC(=O)NC[C@H]1CN(c2ccc(N3CCOCC3)c(F)c2)C(=O)O1 [LZD]
MIC ([1]; S. aureus NRS 1 (hVISA)): 1 µg/mL (≈ 2.96 µM)
MIC ([1]; S. aureus NRS 2): 4 µg/mL (≈ 11.9 µM)
MIC ([1]; S. aureus NRS 3): 1 µg/mL (≈ 2.96 µM)
MIC ([1]; S. aureus NRS 4): 1 µg/mL (≈ 2.96 µM)
MIC ([1]; S. aureus NRS 13): 2 µg/mL (≈ 5.93 µM)
MIC ([1]; S. aureus NRS 18): 1 µg/mL (≈ 2.96 µM)
MIC ([1]; S. aureus NRS 22): 1 µg/mL (≈ 2.96 µM)
MIC ([1]; S. aureus NRS 24 (hVISA)): 2 µg/mL (≈ 5.93 µM)
MIC ([1]; S. aureus NRS 27): 2 µg/mL (≈ 5.93 µM)
QC range of MIC (S. aureus ATCC 29213 [2]): (1-4) μg/mL
MIC (S. aureus ATCC 29213 [3]): 4 µg/mL (≈ 11.9 µM)
MIC90 ([4]; CA-MRSA): 4 µg/mL (≈ 11.9 µM)
MIC90 ([4]; MRSA): 4 µg/mL (≈ 11.9 µM)
MIC90 ([4]; MSSA): 4 µg/mL (≈ 11.9 µM)

CN[C@H](CC(C)C)C(=O)N[C@H]1C(=O)N[C@@H](CC(N)=O)C(=O)N[C@H]2C(=O)N[C@H]3C(=O)N[C@H](C(=O)N[C@H](C(=O)O)c4cc(O)cc(O)c4-c4cc3ccc4O)[C@H](O)c3ccc(c(Cl)c3)Oc3cc2cc(c3O[C@@H]2O[C@H](CO)[C@@H](O)[C@H](O)[C@H]2O[C@H]2C[C@](C)(N)[C@H](O)[C@H](C)O2)Oc2ccc(cc2Cl)[C@H]1O [VAN]
MIC ([1]; S. aureus NRS 1 (hVISA)): 4 µg/mL (≈ 2.76 µM)
MIC ([1]; S. aureus NRS 2): 0.5 µg/mL (≈ 0.345 µM)
MIC ([1]; S. aureus NRS 3): 8 µg/mL (≈ 5.52 µM)
MIC ([1]; S. aureus NRS 4): 4 µg/mL (≈ 2.76 µM)
MIC ([1]; S. aureus NRS 13): 2 µg/mL (≈ 1.38 µM)
MIC ([1]; S. aureus NRS 18): 4 µg/mL (≈ 2.76 µM)
MIC ([1]; S. aureus NRS 22): 4 µg/mL (≈ 2.76 µM)
MIC ([1]; S. aureus NRS 24 (hVISA)): 2 µg/mL (≈ 1.38 µM)
MIC ([1]; S. aureus NRS 27): 2 µg/mL (≈ 1.38 µM)
QC range of MIC (S. aureus ATCC 29213 [2]): (0.5-2) μg/mL
MIC (S. aureus ATCC 29213 [3]): 0.5 µg/mL (≈ 0.345 µM)
MIC90 ([4]; CA-MRSA): 1 µg/mL (≈ 0.69 µM)
MIC90 ([4]; MRSA): 2 µg/mL (≈ 1.38 µM)
MIC90 ([4]; MSSA): 1 µg/mL (≈ 0.69 µM)

CCC[C@@H]1C[C@@H](C(=O)N[C@@H]([C@H]2O[C@H](SC)[C@H](O)[C@@H](O)[C@H]2O)[C@H](C)Cl)N(C)C1 [CLI]
MIC ([1]; S. aureus NRS 1 (hVISA)): >8 µg/mL
MIC ([1]; S. aureus NRS 2): >8 µg/mL
MIC ([1]; S. aureus NRS 3): >8 µg/mL
MIC ([1]; S. aureus NRS 4): >8 µg/mL
MIC ([1]; S. aureus NRS 13): 0.06 µg/mL (≈ 0.141 µM)
MIC ([1]; S. aureus NRS 18): >8 µg/mL
MIC ([1]; S. aureus NRS 22): >8 µg/mL
MIC ([1]; S. aureus NRS 24 (hVISA)): >8 µg/mL
MIC ([1]; S. aureus NRS 27): >8 µg/mL
QC range of MIC (S. aureus ATCC 29213 [2]): (0.06-0.25) μg/mL
MIC (S. aureus ATCC 29213 [3]): 0.25 µg/mL (≈ 0.588 µM)

OC(Cn1cncn1)(Cn1cncn1)c1ccc(F)cc1F [Fluconazole]
CLSI QC range of MIC (Candida spp. [5]; 24 hr): 0.5 to 4 µg/mL
CLSI QC range of MIC (Candida spp. [5]; 48 hr): 1 to 4 µg/mL
MIC 24 hr (S. aureus ATCC 29213 [6]): >64
QC Range 24 hr ([7]; 24 hr): 0.5-4
QC Range 48 hr ([7]; 48 hr): 1-4
MIC 24 hr (Candida krusei [8]; 24 hr): 16 µg/mL (≈ 52.2 µM)
MIC 48 hr (Candida krusei [8]; 48 hr): 32 µg/mL (≈ 104 µM)
MIC 24 hr (Aspergillus spp.; A. flavus ATCC 204304): > 64 µg/mL
MIC 48 hr (Aspergillus spp.; A. flavus ATCC 204304): > 64 µg/mL
MIC 24 hr (Aspergillus spp.; A. fumigatus ATCC MYA-3626): > 64 µg/mL
MIC 48 hr (Aspergillus spp.; A. fumigatus ATCC MYA-3626): > 64 µg/mL
MIC 24 hr (E. coli ATCC 25922): >64
QC Range 24 hr (Candida krusei [9]; 24 hr): 8-64
QC Range 48 hr (Candida krusei [9]; 48 hr): 16-128
MIC50 (fungal pathogens; Candida albicans, read-out: Antifungal activity, MIC 50%, C. albicans CA1): ≤ 0.125 µg/mL
MIC50 (fungal pathogens; Candida albicans, read-out: Antifungal activity, MIC 50%, C. albicans CA2): ≤ 0.125 µg/mL
MIC50 (fungal pathogens; Candida albicans, read-out: Antifungal activity, MIC 50%, C. albicans CA3): > 64 µg/mL
MIC50 (fungal pathogens; Candidozyma auris, read-out: Antifungal activity, MIC 50%, C. auris Cau1): > 64 µg/mL
MIC50 (fungal pathogens; Candidozyma auris, read-out: Antifungal activity, MIC 50%, C. auris Cau2): 2 µg/mL (≈ 6.53 µM)
MIC50 (fungal pathogens; Candidozyma auris, read-out: Antifungal activity, MIC 50%, C. auris Cau3): > 64 µg/mL
MIC50 (fungal pathogens; Cryptococcus neoformans, read-out: Antifungal activity, MIC 50%, C. neoformans CN1): 64 µg/mL (≈ 209 µM)
MIC50 (fungal pathogens; Cryptococcus neoformans, read-out: Antifungal activity, MIC 50%, C. neoformans CN2): 64 µg/mL (≈ 209 µM)
MIC50 (fungal pathogens; Cryptococcus neoformans, read-out: Antifungal activity, MIC 50%, C. neoformans CN3): 2 µg/mL (≈ 6.53 µM)
MIC50 (fungal pathogens; Lodderomyces parapsilosis, ATCC22019, read-out: Antifungal activity, MIC 50%, C. parapsilosis ATCC22019): 1 µg/mL (≈ 3.27 µM)
MIC50 (fungal pathogens; Pichia kudriavzevii, ATCC6258, read-out: Antifungal activity, MIC 50%, C. krusei ATCC6258): 16 µg/mL (≈ 52.2 µM)
MIC 24 hr [10]: 1 µg/mL (≈ 3.27 µM)
MIC (Candida spp. [11]; 24 h, C. albicans MMX 7039, Sensitive, incubation 24 hr): 0.5 µg/mL (≈ 1.63 µM)
MIC (Candida spp. [11]; 24 h, C. glabrata MMX 7318, FLU^R, incubation 24 hr): > 64 µg/mL
MIC (Candida spp. [11]; 24 h, C. parapsilosis MMX 2323 (ATCC 22019), QC, incubation 24 hr): 2 µg/mL (≈ 6.53 µM)
MIC (Candida spp. [11]; 24 h, C. parapsilosis MMX 7370, FLU^R, incubation 24 hr): 32 µg/mL (≈ 104 µM)
MIC (Candida spp. [11]; 24 h, C. tropicalis MMX 7247, FLU^R, incubation 24 hr): 64 µg/mL (≈ 209 µM)
MIC (Candida spp. [11]; 24 h, C. tropicalis MMX 7360, FLU^R, incubation 24 hr): 64 µg/mL (≈ 209 µM)
MIC (Candida spp. [11]; 48 h, C. albicans MMX 7039, Sensitive, incubation 48 hr): 0.5 µg/mL (≈ 1.63 µM)
MIC (Candida spp. [11]; 48 h, C. albicans MMX 7055, Sensitive, incubation 48 hr): 0.5 µg/mL (≈ 1.63 µM)
MIC (Candida spp. [11]; 48 h, C. glabrata MMX 7318, FLU^R, incubation 48 hr): > 64 µg/mL
MIC (Candida spp. [11]; 48 h, C. glabrata miX 7086, FLU^R, incubation 48 hr): 64 µg/mL (≈ 209 µM)
MIC (Candida spp. [11]; 48 h, C. parapsilosis MMX 2323 (ATCC 22019), QC, incubation 48 hr): 2 µg/mL (≈ 6.53 µM)
MIC (Candida spp. [11]; 48 h, C. parapsilosis MMX 7555, FLU^R, incubation 48 hr): 64 µg/mL (≈ 209 µM)
MIC (Candida spp. [11]; 48 h, C. tropicalis MMX 7247, FLU^R, incubation 48 hr): > 64 µg/mL
MIC (Candida spp. [11]; 48 h, C. tropicalis MMX 7248, FLU^R, incubation 48 hr): > 64 µg/mL
MIC (Candida spp. [11]; 48 h, C. tropicalis MMX 7360, FLU^R, incubation 48 hr): > 64 µg/mL
